A word on the inhibition: it is the change of the read-out against control, counted positive when it falls. One may read the IC50 as the concentration that inhibits the measured activity by half.

In this experiment the target is human 11β-HSD1 (Homo sapiens, UniProt P28845). Briefly: biochemical. The settings on record: for inhibition at 0.1 µM / inhibition at 0.111 µM: 1.5 h; for IC50: Biological Test Example 2 IC50 Range, microsomes from CHO cells overexpressing human 11β-HSD1, SPA.
Where [1] appears, read: read-out: Biological Test Example 2 Average % inhibition at 100 nm, at 100 nm.
Where [2] appears, read: read-out: Biological Test Example 2 Average % inhibition at 111 nm, at 111 nm.

The structures appear in SMILES notation. Like-named read-outs stand apart in the source and are kept apart here.

Chain of human 11β-HSD1 (P28845 whole entry): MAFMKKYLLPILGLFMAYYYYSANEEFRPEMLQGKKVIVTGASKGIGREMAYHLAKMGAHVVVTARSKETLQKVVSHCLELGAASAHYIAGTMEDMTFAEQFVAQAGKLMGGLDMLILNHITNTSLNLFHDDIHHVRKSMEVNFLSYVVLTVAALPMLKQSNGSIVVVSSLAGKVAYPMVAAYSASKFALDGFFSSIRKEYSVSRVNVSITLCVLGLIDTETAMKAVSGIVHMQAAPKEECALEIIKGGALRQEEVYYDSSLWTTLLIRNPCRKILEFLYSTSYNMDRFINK
Method: All reactions are carried out at room temperature in 96 well clear flexible PET Microbeta plates (PerkinElmer). […] The reaction is stopped by adding 50 μl of the SPA beads suspension containing 10 μM 18β-glycyrrhetinic acid, 5 mg/ml protein A coated YSi SPA beads (GE Healthcare) and 3.3 μg/ml of anti-cortisol antibody (East Coast Biologics) in Superblock buffer (Bio-Rad). The plates are then shaken for 120 minutes at room temperature, and the SPA signal corresponding to [^3H]cortisol is measured on a Microbeta plate reader.

For the compound `N#Cc1ccc(N[C@@H]2CCN(C(=O)OC3C4CC5CC3CC(C(=O)NC3CC3)(C5)C4)C2)nc1` (single isomer, unassigned) [Example 118 Isomer 1], the half-maximal inhibitory concentration (IC50) is > 0.1 µM. In addition, under setting [1], the inhibition at 0.1 µM was 9.1%.
As to `CC(C)(C)OC(=O)N1C[C@@H]2C[C@H]1CN2C(=O)OC1C2CC3CC(C2)CC1C3` (stereo partly drawn) [Example 7, (1S,4S)-2-tert-butyl 5-(2-adamantyl)-2,5-diazabicyclo[2.2.1]heptane-2,5-dicarboxylate], the half-maximal inhibitory concentration (IC50) is < 0.1 µM.
For `CC(C)(C)OC(=O)NC1(c2ccccc2)CCN(C(=O)OC2C3CC4CC(C3)CC2C4)C1` (stereo not drawn) [Example 13, (2-adamantyl) 3-(tert-butoxycarbonylamino)-3-phenylpyrrolidine-1-carboxylate], the IC50 was < 0.1 µM. Under setting [1], the inhibition at 0.1 µM is 87.7%.
Regarding `CC(C)(C)OC(=O)N(CCO)[C@@H]1CCN(C(=O)O[C@H]2C3CC4CC2C[C@](C(N)=O)(C4)C3)C1` [Example 28, (R)-(1-carbamoyl-4-adamantyl) 3-(tert-butoxycarbonyl(2-hydroxyethyl)amino)pyrrolidine-1-carboxylate], the IC50 was < 0.1 µM.
For `Cc1cc(N[C@@H]2CCN(C(=O)O[C@H]3C4CC5CC3C[C@](C(N)=O)(C5)C4)C2)nc(C)n1` [Example 33, (R)-(trans-1-carbamoyl-4-adamantyl) 3-(2,6-dimethylpyrimidin-4-ylamino)pyrrolidine-1-carboxylate], the concentration for half-maximal inhibition (IC50) was < 0.1 µM. Besides, the inhibition at 0.1 µM under setting [1] is 78.6%.
For `N#Cc1cccnc1N[C@@H]1CCN(C(=O)O[C@H]2C3CC4CC2C[C@](C(N)=O)(C4)C3)C1` [Example 34, (R)-(trans-1-carbamoyl-4-adamantyl) 3-(3-cyanopyridin-2-ylamino)pyrrolidine-1-carboxylate], the IC50 was < 0.1 µM. Also, the inhibition at 0.1 µM under setting [1] came to 94.6%.
`N#Cc1ccc(N[C@@H]2CCN(C(=O)O[C@H]3C4CC5CC3C[C@](C(N)=O)(C5)C4)C2)nc1` [Example 35, (R)-(trans-1-carbamoyl-4-adamantyl) 3-(5-cyanopyridin-2-ylamino)pyrrolidine-1-carboxylate]: the IC50 is < 0.1 µM. Besides, the inhibition at 0.1 µM under setting [1] is 101%.
As for `NC(=O)[C@]12CC3CC(C1)[C@@H](OC(=O)N1CC[C@@H](Nc4nnc(C(F)(F)F)s4)C1)C(C3)C2` [Example 42, (R)-(trans-1-carbamoyl-4-adamantyl) 3-(5-(trifluoromethyl)-1,3,4-thiadiazol-2-ylamino)pyrrolidine-1-carboxylate], the concentration for half-maximal inhibition (IC50) was < 0.1 µM. The inhibition at 0.1 µM under setting [1] was 79.3%.
As for `CN(c1ccc(C(F)(F)F)cn1)C1CCN(C(=O)O[C@H]2C3CC4CC2C[C@](C(N)=O)(C4)C3)C1` (stereo partly drawn) [Example 43, (trans-1-carbamoyl-4-adamantyl) 3-(methyl(5-(trifluoromethyl)pyridin-2-yl)amino)pyrrolidine-1-carboxylate], the IC50 was < 0.1 µM. Besides, the inhibition at 0.1 µM under setting [1] came to 102%.
On the same counts, the results for `CN(c1ncccc1C(F)(F)F)C1CCN(C(=O)O[C@H]2C3CC4CC2C[C@](C(N)=O)(C4)C3)C1` (stereo partly drawn) [Example 44, (trans-1-carbamoyl-4-adamantyl) 3-(methyl(3-(trifluoromethyl)pyridin-2-yl)amino)pyrrolidine-1-carboxylate] are < 0.1 µM and 97.2%.
For the compound `CN(c1cccc(C(F)(F)F)n1)C1CCN(C(=O)OC2C3CC4CC2CC(C(N)=O)(C4)C3)C1` (stereo not drawn) [Example 45, (trans-1-carbamoyl-4-adamantyl) 3-(methyl(6-(trifluoromethyl)pyridin-2-yl)amino)pyrrolidine-1-carboxylate], the IC50 was < 0.1 µM. The inhibition at 0.1 µM under setting [1] came out at 97.7%.
For the compound `CC(C)OC(=O)N[C@@H]1CCN(C(=O)NC2C3CC4CC(C3)CC2C4)C1` (stereo partly drawn) [Example 49, (R)-isopropyl 1-((2-adamantyl)carbamoyl)pyrrolidin-3-ylcarbamate], the IC50 was < 0.1 µM. In addition, the inhibition at 0.111 µM under setting [2] is 74.6%.
The matching figures for `CC(C)COC(=O)N[C@@H]1CCN(C(=O)NC2C3CC4CC(C3)CC2C4)C1` (stereo partly drawn) [Example 50, (R)-isobutyl 1-((2-adamantyl)carbamoyl)pyrrolidin-3-ylcarbamate]: < 0.1 µM and 92.9%.
On the same counts, the results for `CC(C)(C)OC(=O)N1CCCC12CCN(C(=O)NC1C3CC4CC(C3)CC1C4)C2` (stereo not drawn) [Example 58, tert-butyl 7-(2-adamantylcarbamoyl)-1,7-diazaspiro[4.4]nonane-1-carboxylate] are < 0.1 µM and 94.3%.
`CCOC(=O)C1(Nc2ccccc2)CCN(C(=O)NC2C3CC4CC(C3)CC2C4)CC1` (stereo not drawn) [Example 59, Ethyl 1-(2-adamantylcarbamoyl)-4-(phenylamino)piperidine-4-carboxylate]: the IC50 was in the range of 0.1 to 1 µM. The inhibition at 0.111 µM (read-out: Biological Test Example 2 Average % inhibition at 111 nm) was 47.5%.
Consider `CC(C)(C)OC(=O)NC1(c2ccccc2)CCN(C(=O)NC2C3CC4CC(C3)CC2C4)C1` (stereo not drawn) [Example 60, tert-butyl 1-(2-adamantylcarbamoyl)-3-phenylpyrrolidin-3-ylcarbamate], for which the IC50 is < 0.1 µM. Besides, the inhibition at 0.111 µM under setting [2] turned out to be 83.3%.
In the case of `N#Cc1ccc(N[C@@H]2CCN(C(=O)NC3C4CC5CC(C4)CC3C5)C2)nc1` (stereo partly drawn) [Example 61, (R)-3-(5-cyanopyridin-2-ylamino)-N-(2-adamantyl)pyrrolidine-1-carboxamide], the IC50 is < 0.1 µM. In addition, the inhibition at 0.1 µM (read-out: Biological Test Example 2 Average % inhibition at 100 nm) is 97.6%.
Take `NC(=O)C12CC3CC(C1)C(OC(=O)N1CC[C@@H](Nc4ncccc4F)C1)C(C3)C2` (stereo partly drawn) [Example 63, (R)-(trans-1-carbamoyl-4-adamantyl) 3-(3-fluoropyridin-2-ylamino)pyrrolidine-1-carboxylate]: the IC50 is < 0.1 µM. In addition, the inhibition at 0.1 µM under setting [1] worked out at 98.4%.
Consider `N#Cc1ccc(N[C@H]2CCN(C(=O)O[C@H]3C4CC5CC3C[C@](C(N)=O)(C5)C4)C2)nc1` [Example 65, (S)-(trans-1-carbamoyl-4-adamantyl) 3-(5-cyanopyridin-2-ylamino)pyrrolidine-1-carboxylate], for which the IC50 was < 0.1 µM. Also, the inhibition at 0.1 µM under setting [1] is 97.1%.
Take `N#Cc1cccnc1N[C@H]1CCN(C(=O)O[C@H]2C3CC4CC2C[C@](C(N)=O)(C4)C3)C1` [Example 66, (S)-(trans-1-carbamoyl-4-adamantyl) 3-(3-cyanopyridin-2-ylamino)pyrrolidine-1-carboxylate]: the IC50 was < 0.1 µM. For the same compound, the inhibition at 0.1 µM under setting [1] is 95.5%.
For `CC1(Nc2ncccc2C#N)CCN(C(=O)O[C@H]2C3CC4CC2C[C@](C(N)=O)(C4)C3)C1` (stereo partly drawn) [Example 67, (trans-1-carbamoyl-4-adamantyl) 3-(3-cyanopyridin-2-ylamino)-3-methylpyrrolidine-1-carboxylate], the IC50 was < 0.1 µM. Moreover, the inhibition at 0.1 µM under setting [1] is 97%.
The matching figures for `N#Cc1cccnc1NC1CCN(C(=O)O[C@H]2C3CC4CC2C[C@](C(N)=O)(C4)C3)CC1` [Example 68, (1-carbamoyl-4-adamantyl) 4-(3-cyanopyridin-2-ylamino)piperidine-1-carboxylate]: < 0.1 µM and 90.7%.
In the case of `CC1(Nc2ccc(C#N)cn2)CCN(C(=O)O[C@H]2C3CC4CC2C[C@](C(N)=O)(C4)C3)C1` (stereo partly drawn) [Example 69, (trans-1-carbamoyl-4-adamantyl) 3-(5-cyanopyridin-2-ylamino)-3-methylpyrrolidine-1-carboxylate], the IC50 is < 0.1 µM. In addition, under setting [1], the inhibition at 0.1 µM turned out to be 98.7%.
On to `COC(=O)C12CC3CC(C1)C(OC(=O)N1CC[C@@H](Nc4ncccc4C#N)C1)C(C3)C2` (stereo partly drawn) [Example 70, (R)-(1-(methoxycarbonyl)-4-adamantyl) 3-(3-cyanopyridin-2-ylamino)pyrrolidine-1-carboxylate], for which the half-maximal inhibitory concentration (IC50) is < 0.1 µM. For the same compound, the inhibition at 0.1 µM under setting [1] was 78.4%.
Take `NC(=O)C1CC2CCCC(C1)C2OC(=O)N1CC[C@@H](Nc2ccc(C(F)(F)F)cn2)C1` (stereo partly drawn) [Example 71, (3R)-3-carbamoylbicyclo[3.3.1]nonan-9-yl 3-(5-(trifluoromethyl)pyridin-2-ylamino)pyrrolidine-1-carboxylate]: the IC50 was < 0.1 µM. The inhibition at 0.1 µM under setting [1] was determined as 84.2%. Also, under setting [2], the inhibition at 0.111 µM stood at 82.6%.
Turning to `N#Cc1cnc(N[C@@H]2CCN(C(=O)O[C@H]3C4CC5C[C@@H]3C[C@](C(N)=O)(C5)C4)C2)s1` [Example 72, (3R) (1-carbamoyl-4-adamantyl) 3-(5-cyanothiazol-2-ylamino)pyrrolidine-1-carboxylate], the half-inhibitory concentration (IC50) is < 0.1 µM. Besides, the inhibition at 0.1 µM under setting [1] was 97.3%. Moreover, the inhibition at 0.111 µM under setting [2] was found to be 97.3%.
`N#Cc1cccnc1N[C@@H]1CCN(C(=O)O[C@H]2C3CC4CC2C[C@](C#N)(C4)C3)C1` [Example 73, (3R) (trans-1-cyano-4-adamantyl) 3-(3-cyanopyridin-2-ylamino)pyrrolidine-1-carboxylate]: the IC50 was < 0.1 µM. Further, under setting [1], the inhibition at 0.1 µM is 94.6%.
For `CN(c1ccc(C#N)cn1)C1CCN(C(=O)O[C@H]2C3CC4CC2C[C@](C(N)=O)(C4)C3)C1` (stereo partly drawn) [Example 74, (trans-1-carbamoyl-4-adamantyl) 3-((5-cyanopyridin-2-yl)(methyl)amino)pyrrolidine-1-carboxylate], the half-inhibitory concentration (IC50) is < 0.1 µM. For the same compound, the inhibition at 0.1 µM under setting [1] was determined as 97.8%. Besides, the inhibition at 0.111 µM under setting [2] is 96.5%.
`N#Cc1ccc(N2CCCC23CCN(C(=O)O[C@H]2C4CC5CC2C[C@](C(N)=O)(C5)C4)C3)nc1` (stereo partly drawn) [Example 75, (trans-1-carbamoyl-4-adamantyl) 1-(5-cyanopyridin-2-yl)-1,7-diazaspiro[4.4]nonane-7-carboxylate]: the concentration for half-maximal inhibition (IC50) was < 0.1 µM. Moreover, under setting [1], the inhibition at 0.1 µM was 98.8%. Also, the inhibition at 0.111 µM under setting [2] came out at 97.7%.

These data come from patent US8828985B2, “Carbamate and urea inhibitors of 11-beta-hydroxysteroid dehydrogenase 1” (Vitae Pharmaceuticals, Inc., priority 2008, dated 2014).
